Assay results published in US20110112053A1, “PHARMACOLOGICAL TARGETING OF VASCULAR MALFORMATIONS” (University of Utah Research Foundation, priority 2008, published 2011).

Key:
[1] = molecular target: geranylgeranyltransferase I (GGTase I) (Homo sapiens, UniProt P53609); conditions: cited from earlier work
[2] = tested on: JNK; assay: Immunoblot for phosphorylated and total JNK; assay type: cell-based, human; conditions: 10 μM Y-27632 for 30 min prior to cell lysis
Method: MAPK Profiling. siRNA transfected cells were lysed in RIPA buffer (50 mM Tris pH 7.4, 150 mM NaCl, 1% NP-40) supplemented with protease and phosphatase inhibitors. Lysates were then analyzed by western blotting. Antibodies to phospho-JNK and total JNK were from Santa Cruz Biotechnology. Antibodies to phospho-ERK, phospho-p38, phospho-MKK4, phospho-MKK7, total ERK, total p38, total MKK4, and total MKK7 were from Cell Signaling Technology. The effect of ROCK inhibitor on JNK was tested by treating cells with 10 μM Y-27632 for 30 min prior to cell lysis. The effect of simvastatin on JNK was determined by treating cells with 10 μM simvastatin for 24 h prior to cell lysis.

[3] = tested on: mice; conditions: mouse, in vivo
[4] = tested on: CCM2-depleted HMVECs; assay: Phalloidin staining for actin stress fibers; assay type: cell-based, human
Method: Immunofluorescent Cell Staining. Glass chamber slides were coated with human fibronectin (Biomedical Technologies, Inc.), and transfected cells were seeded at 50,000 cells per well. For the RhoA and ROCK experiment, cells were treated four days after seeding with 40 μg/mL of cell-permeable C3 transferase (Cytoskeleton, Inc.) or 20 μM Y-27632 for 4 hours. For the simvastatin experiment, cells were treated three days after seeding with 40 μM simvastatin (Calbiochem) or equivalent amounts of ethanol in growth media for 24 hours. Cells were fixed in 4% formaldehyde and incubated with an antibody against β-catenin (BD Biosciences). Fluorescent secondary antibody (Molecular Probes) was used to visualize β-catenin staining Actin cytoskeleton was visualized using fluorescently-conjugated phalloidin (Molecular Probes). Images were obtained with an Olympus FV300 confocal microscope.

[5] = tested on: CCM2-depleted HMVECs; assay: Transendothelial electrical resistance (barrier function); assay type: cell-based, human; conditions: C3 transferase 1 μg ml^−1
Method: Transendothelial Resistance. An electrode culture array (Applied Biophysics) was coated with human fibronectin and transfected cells were seeded at 50,000 cells per well. Three days after seeding, cells were serum-starved in endothelial basal medium-2 with 0.2% BSA overnight. Transendothelial resistance was measured with an electric cell-substrate impedance sensing system (Applied Biophysics). Cell-permeable C3 transferase (1 μg ml^−1) was added to inhibit RHOA. For basal resistance, 40 wells each were measured for Rho inhibition experiments, six control wells each and ten C3 transferase wells each were measured.

In the case of `CC(C)C[C@H](NC(=O)c1ccc(NCc2c[nH]cn2)cc1-c1cccc2ccccc12)C(=O)O.O=C(O)C(F)(F)F` [GGTI-2133, N-[[4-(Imidazol-4-yl)methylamino]-2-(1-naphthyl)benzoyl]leucine trifluoroacetate salt], the “selectivity for GGTase I over farnesyltransferase” value [1] is listed as 140 fold.
With `C[C@@H](N)[C@H]1CC[C@H](C(=O)Nc2ccncc2)CC1` [Y-27632, (R)-(+)-trans-N-(4-Pyridyl)-4-(1-aminoethyl)-cyclohexanecarboxamide] the “activation (phosphorylation) of JNK” value [2] was “decreased the activation of JNK”, the tolerability in mice [3] was “do not tolerate” and the “actin stress fiber response” value ([4]; 20 μM Y-27632, 4 hours) was “blocked the stress fiber response”.
For C3 transferase, the “actin stress fiber response” value ([4]; 40 μg/mL cell-permeable C3 transferase, 4 hours) was “blocked the stress fiber response” and the “barrier function (transendothelial resistance)” value [5] was “significantly rescue barrier function”.
